PMC7325174 (bioRxiv, 2020)

Tests used:
SARS-CoV-2 = assay type: cell-based
Vero E6 cells = conditions: parallel plates

Row | Structure (SMILES) | effect on SARS-CoV-2 viral RNA in supernatants / replication (in words) (SARS-CoV-2) | compound cytotoxicity (in words) (Vero E6 cells) | potency at 48 hpi compared with 24 hpi (in words) (SARS-CoV-2) | IC50 (SARS-CoV-2; read-out: IC50, SARS-CoV-2 viral RNA in supernatants)
1 | CCC(CC)COC(=O)[C@H](C)N[P@](=O)(OC[C@H]1O[C@@](C#N)(c2ccc3c(N)ncnn23)[C@H](O)[C@@H]1O)Oc1ccccc1 [remdesivir] | substantially decreased |  |  | 
2 | CC(C)CN(C[C@@H](O)[C@H](Cc1ccccc1)NC(=O)O[C@H]1CCOC1)S(=O)(=O)c1ccc(N)cc1 [amprenavir] | modestly inhibited | without apparent cytotoxicity |  | 
3 | Cc1nc2ccc(Br)cc2c(-c2ccc(Cl)cc2)c1C(OC(C)(C)C)C(=O)O (centres unmarked) [ALLINI-2] | modestly inhibited | without apparent cytotoxicity |  | 
4 | CCOC(=O)[C@H]1O[C@@H]1C(=O)N[C@@H](CC(C)C)C(=O)NCCC(C)C [E64D] | substantially decreased | minimal cytotoxicity | less potent | 3.3 µM
5 | Cc1cccc(/C=N/Nc2cc(N3CCOCC3)nc(OCCc3ccccn3)n2)c1 [apilimod] | substantially decreased | minimal cytotoxicity | less potent | 
6 | Cc1ccnc2c1NC(=O)c1cccnc1N2C1CC1 [nevirapine] | modestly inhibited | without apparent cytotoxicity |  | 
